Reference: patent US20080293587A1, “Method of Screening a Biological Target for Weak Interactions Using Weak Affinity Chromatography” (Transientic Interactions AB, priority 2005, published 2008)

Biological target: bovine serum albumin (BSA) (Bos taurus, UniProt P02769)
Settings: bupivacain 1 mM; for retardation in zonal weak affinity chromatography in a well (peak apex): immobilized BSA, mobile phase 0.05 M sodium phosphate buffer pH 7.0, 20° C., UV 230 nm, propranolol 0.25 mM, sodium azide 0.5 mM
Procedure: 200 mg of reference gel (diol-silica) and assay gel (BSA-diol-silica) were suspended in 1 ml methanol and packed into each well in a 96-well filtering system (Captiva® 96-well 10μ glassfiber filter plate from Ansys Technologies (Company), see FIG. 1) using vacuum applied to the wells. The gel in the wells was first washed with 5 ml MeOH and then with 5 ml 0.1 M sodium phosphate buffer pH 7.0. Filter discs were placed on top of the gel material in each well.
Wells containing gel materials were washed carefully with 0.05 M sodium phosphate buffer pH 7.0 using vacuum collar to remove non-bound BSA, contaminants and entrapped air. The excess of buffer was gently removed from the surface of the wells using pipette and 10 μl of test substances were injected centrally in each wells which were then flushed with mobile phase (0.05 M sodium phosphate buffer pH 7.0). Vacuum was applied to the collar and the mobile phase was flowed into a 96 well collection plate (Nunclon, Nalgene-Nunc) within 8-10 seconds. Vacuum was then reduced and the collection plate (approximately 0.2 ml in each well) was replaced with a new one. This fraction collection process was repeated with 20-75 plates. During this procedure the wells were eluted with mobile phase continuously. […] The eluates in the plates were transferred carefully by automatic pipettes and weighed to estimate the retention volume. All procedures were performed at room temperature (20° C.). Eluted substances were detected by UV-scans at 230 nm. Chromatograms were obtained by plotting UV absorbance versus fraction volume.

Chain of bovine serum albumin (BSA) (P02769 25-607): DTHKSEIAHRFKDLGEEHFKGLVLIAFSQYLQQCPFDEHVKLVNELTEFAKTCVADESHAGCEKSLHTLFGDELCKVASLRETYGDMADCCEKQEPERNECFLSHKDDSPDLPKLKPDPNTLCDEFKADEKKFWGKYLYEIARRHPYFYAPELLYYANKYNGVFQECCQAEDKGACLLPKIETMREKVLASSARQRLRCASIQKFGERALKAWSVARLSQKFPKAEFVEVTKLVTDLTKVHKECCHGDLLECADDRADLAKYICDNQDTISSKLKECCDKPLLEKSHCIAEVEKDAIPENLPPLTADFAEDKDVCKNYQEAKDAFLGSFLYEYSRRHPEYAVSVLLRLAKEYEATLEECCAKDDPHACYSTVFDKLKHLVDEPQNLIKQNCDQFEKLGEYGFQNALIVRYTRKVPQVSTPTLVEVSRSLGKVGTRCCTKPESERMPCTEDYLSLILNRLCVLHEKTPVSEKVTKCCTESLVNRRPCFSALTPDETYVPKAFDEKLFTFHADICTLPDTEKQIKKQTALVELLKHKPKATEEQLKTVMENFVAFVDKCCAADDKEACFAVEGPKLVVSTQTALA

Row | SMILES | well-to-well reproducibility of retardation in zonal weak affinity chromatography (three different wells, chromatography repeated once in each well) | retardation in zonal weak affinity chromatography in a well (peak apex)
1 | CCCCN1CCCCC1C(=O)Nc1c(C)cccc1C (stereo not drawn) [Bupivacain] | retarded | retarded
2 | CC(C)NCC(O)COc1cccc2ccccc12 (stereo not drawn) [propranolol] |  | retarded
